In US20260265408A1, “GD2-SPECIFIC CHIMERIC ANTIGEN RECEPTOR EFFECTOR CELLS FOR USE IN THE TREATMENT OF SOLID TUMORS, POSSIBLY IN COMBINATION WITH ENHANCER OF ZESTE HOMOLOG 2 (EZH2) INHIBITORS” (priority 2023, published 2026):

Test system: CAR.GD2 T-cells
Assay: In vivo activation of iC9 suicide gene by AP1903 in PDX-MB mouse model
Design: species or system NSG mice
Experimental: The in vivo activity of AP1903 on apoptosis induction of CAR. GD2 T-cells was assessed in in vivo PDX-MB mouse model. Briefly, 2×10^5 Med-411FH mCherry/Luciferase were orthotopic infused in 5-week-old female NSG mice. After tumor engraftment, confirmed by bioluminescence monitoring, mice received an intravenous injection (i.v.) of 10×10^6 of NT T or genetically modified CAR.GD2 T cells. Ten days later, when the presence of circulating T cells was confirmed by flow cytometric analysis, mice were randomly divided in four groups and treated or not treated by intraperitoneal (i.p.) infusion with AP1903 (100 mg/mouse) on day +11, day +12 and day +13 (NT-T no AP1903, NT-T AP1903+ or CAR. GD2-T no AP1903, CAR.GD2-T AP1903+). The residual of effector cells was evaluated 24 hours after the last AP1903 treatment by flow cytometric analysis in the peripheral blood or histologic and IHC analysis in brain/tumor tissue. Animals were sacrificed and brains were fixed in 4% formaldehyde in 0.1 mol/L phosphate buffer (pH 7.2) and paraffin embedded. AP1903 (cat. No. 6130, Biotechne-TOCRIS).
The histopathologic analysis was performed as previously reported^74. Briefly, after Haematoxylin/Eosin staining for IHC analysis, the sections were cut to 2.5 μm thick, dewaxed, and rehydrated. Epitope retrieval was performed by boiling the slides with EDTA (pH 9). Endogenous peroxidase was blocked with 3% hydrogen peroxide for 10 minutes followed by another blocking step in 5% serum albumin (BSA) for 1-hour RT. The sections were then incubated with anti-CD3 antibody (1:100, DAKO) or anti-Ki67 (1:100, Abcam) at 4° C. overnight. Secondary biotinylated antibody (K8024, Dako, Carpinteria, USA) and the peroxidase DAB kit (Dako, Carpinteria, USA) were used to reveal the primary antibodies. Slides were then counterstained with hematoxylin, dehydrated with a series of alcohol solutions (70%-100%), followed by three changes of Diasolv and mounted with Diamount (Diapath). Analysis was performed using standard microscopy.

CC[C@H](C(=O)N1CCCC[C@H]1C(=O)O[C@H](CCc1ccc(OC)c(OC)c1)c1cccc(OCC(=O)NCCNC(=O)COc2cccc([C@@H](CCc3ccc(OC)c(OC)c3)OC(=O)[C@@H]3CCCCN3C(=O)[C@@H](CC)c3cc(OC)c(OC)c(OC)c3)c2)c1)c1cc(OC)c(OC)c(OC)c1 [AP1903]
circulating CAR.GD2-T cells (AP1903 i.p. 100 mg/mouse on three consecutive days, compared to untreated): significant reduction | tumor-infiltrating CD3+ cells (anti-hCD3 IHC on cerebella slides) (AP1903 i.p. on three consecutive days): eliminate tumor-infiltrating CD3+ cells | crossing of the BBB (systemic (i.p.) administration): cross the BBB
